Read-outs that look alike come from different tables or passages of the source.
Assays:
[1] = system: Rat asthma model; test: Rat asthma model, nucleated (inflammatory) cell count in bronchi alveolar lavage fluid (BALF); format: in vivo; conditions: BALF total nucleated cells, model group 182.50 ± 24.52, blank group 85.50 ± 18.70
Text: Rat asthma model was established, and proceeded with blunt dissection of trachea following the last feeding of drug for trachea alveolar washing. Bronchi alveolar lavage fluid (BALF) was collected, and total number of nucleated cells were counted.

[2] = system: Isolated tracheal strip (trachea smooth muscle); test: Isolated tracheal strip relaxation (diastolic rate) after acetylcholine chloride contraction; conditions: read-out: Relaxation rate %
Procedure: Method: Isolated tracheal strip was fabricated, and was placed in the in-vitro tracheal experiment device; 100 μL acetylcholine chloride was added following tension adjustment and balancing to make the trachea extract, and the tension of trachea was increased. Once the tension was increased to the maximum value, and became balanced, corresponding trial drug was fed to inhibit extraction of the trachea; isometric muscle tension variation curve was recorded, and diastolic rate of smooth muscle was calculated. Diastolic rate=(tension after radiography−tension after dosing)/(tension after radiography)*100%.

[3] = system: Rat PAH model; test: Monocrotaline incurred pulmonary hypertension in rats, right ventricular systolic pressure; format: in vivo; conditions: 200 mg/Kg daily, 30th day, right cardiac catheterization, x ± s, model group 43.78 ± 2.14, normal group 21.08 ± 2.13
Procedure: Method: Rat PAH model was established, and normal saline was fed to contrast group with volume equivalent to that for injection. Drug for interference was fed 2 days after radiography. 200 mg/Kg per compound was fed on daily basis. Normal saline was used with equivalent volume for lavage to the contrast group and model group respectively. Right ventricular systolic pressure of rat was measured by means of Right cardiac catheterization at anesthesia state on the 30th day.

[4] = system: tracheal smooth muscle; conditions: guinea pig, cited from earlier work
[5] = system: isolated atria; conditions: guinea pig; cited from earlier work
[6] = 0.75 mmol/L, isolated tracheal strip contracted with acetylcholine chloride
[7] = 1.25 mmol/L, isolated tracheal strip contracted with acetylcholine chloride

SMILES | Inflammatory cell [1] | inhibition at 750 µM [2, 6] | inhibition at 1250 µM [2, 7] | RVSP [3] | inhibition at 750 µM [2] | inhibition at 1250 µM [2] | cAMP content in the tracheal smooth muscle [4] | air passage relaxation ([4]; in vivo experiment and experiment in vitro) | effect on isolated atria [5]
CCCCCCCCCCCCCC(=O)OC(C)(C)C1CC=C(C)CC1 (stereo not drawn) [A] | 139.50 ± 31.24^Δ × 10^8/L | 17.6 ± 2.89% | 16.6 ± 14.5% | 35.07 ± 2.81 mmHg |  |  |  |  | 
Cn1c(=O)c2[nH]cnc2n(C)c1=O [Aminophylline, reference compound] |  | 43.7 ± 10.2% | 56.7 ± 9.26% |  |  |  |  |  | 
CCCCCCCCCCCCCCCCCC(=O)OC(C)(C)C1CC=C(C)CC1 (stereo not drawn) [B] | 134.50 ± 25.27^Δ × 10^8/L | 15.4 ± 9.83% | 10.6 ± 13.8% | 36.08 ± 2.01 mmHg |  |  |  |  | 
CC1=CCC(C(C)(C)OC(=O)CN(C)CCO)CC1 (stereo not drawn) [C] | 77.50 ± 68.81 × 10^8/L | 50.2 ± 7.3% | 76.8 ± 7.7% | 22.33 ± 1.03^ΔΔ## mmHg |  |  |  |  | 
CC1=CCC(C(C)(C)OC(=O)CN2CCOCC2)CC1 (stereo not drawn) [D] | 110.5 ± 16.21 × 10^8/L | 36.6 ± 13.8% | 59.4 ± 14.7% | 32.04 ± 1.12^Δ mmHg |  |  |  |  | 
CC1=CCC(C(C)(C)OC(=O)CO[N+](=O)[O-])CC1 (stereo not drawn) [E] | 139.50 ± 20.71^Δ × 10^8/L |  |  | 35.53 ± 3.02 mmHg | 17.1 ± 6.98% | 10.8 ± 4.46% |  |  | 
CCN(CC)CC(=O)OC(C)(C)C1CC=C(C)CC1 (stereo not drawn) [F] | 101.50 ± 14.68 × 10^8/L | 42.3 ± 10.4% | 46.7 ± 3.56% | 23.35 ± 1.04^ΔΔ## mmHg |  |  |  |  | 
CC1=CCC(C(C)(C)OC(=O)CSCCO)CC1 (stereo not drawn) [G] | 76.00 ± 18.15 × 10^8/L | 48.3 ± 9.36% | 81.1 ± 10.2% | 21.08 ± 1.31^ΔΔ# mmHg |  |  |  |  | 
CC1=CCC(C(C)(C)OC(=O)CN2CCC(=O)CC2)CC1 (stereo not drawn) [H] | 123.00 ± 17.23 × 10^8/L | 20.9 ± 7.55% | 43.8 ± 10.2% | 30.33 ± 2.03^Δ mmHg |  |  |  |  | 
CC1=CCC(C(C)(C)OC(=O)CN2CCC(O)CC2)CC1 (stereo not drawn) [J] | 99.50 ± 21.23 × 10^8/L | 35.2 ± 13.9% | 71.5 ± 15.4% | 27.06 ± 1.17^Δ mmHg |  |  |  |  | 
CC1=CCC(C(C)(C)OC(=O)CN2CCCCC2)CC1 (stereo not drawn) [L] | 110.50 ± 16.18 × 10^8/L | 42.5 ± 6.14% | 52.2 ± 6.98% | 25.36 ± 1.17^ΔΔ# mmHg |  |  |  |  | 
CC1=CCC(C(C)(C)OC(=O)CN(CCO)CCO)CC1 (stereo not drawn) [M] | 97.50 ± 13.11 × 10^8/L | 27.7 ± 2.08% | 61 ± 5.07% | 33.36 ± 2.05^Δ mmHg |  |  |  |  | 
CC1CCC(C(C)(C)O)CC1 (stereo not drawn) [N] | 140.00 ± 26.21^Δ × 10^8/L | 27.2 ± 14.1% | 41.3 ± 13.2% | 32.56 ± 2.82^Δ mmHg |  |  |  |  | 
CC1=CCC(C(C)(C)O)CC1 (stereo not drawn) [α-T, α,α,4-Trimethylcyclohex-3-en-1-methanol, reference compound] | 113.00 ± 21.27 × 10^8/L | 28.4 ± 16.1% | 38.4 ± 13.6% | 33.03 ± 2.22^Δ mmHg |  |  | increase cAMP content | available for air passage relaxation | inhibiting effect

Reference: patent US11117866B2, “Terpineol and preparation method and application thereof” (priority 2016, dated 2021)
